Patent US11318141B2, “Methods and compositions related to STK1-targeted small molecules as antibiotic resistance breakers” (Ohio State Innovation Foundation, priority 2017, dated 2022)
Converted amounts (≈) assume the structure as drawn. “And” between values parts separate entries of the source, which are not always exact repeats. Identical values can stand only once. Like-named read-outs stand apart in the source and are kept apart here.

Columns and labels:
[1] = system: S. aureus MW2-WT; assay: microbe, parasite or virus in culture; type: cell-based, Staphylococcus aureus; conditions: for MIC / susceptibility pattern for MW2 in the presence vs absence of Inh2-B1: E-test, 50 μM Inh2-B1
[2] = system: S. aureus MW2ΔSTP1 mutant; assay: E-test antibiotic susceptibility (MIC), Muller-Hinton agar; type: cell-based; conditions: Staphylococcus aureus
[3] = system: S. aureus MW2-WT; assay: Time-to-kill assay (OD and CFU counts over 16 h), broth dilution; type: cell-based, Staphylococcus aureus; conditions: only 50 μM Inh2-B1, only 1.5 μM Ceftriaxone (1 μg/ml) or only 3 μM Cefotaxime (1 μg/ml), 16 h
Method: FIGS. 4A-F show. […] Optical Density and corresponding Colony forming units of (C and D) MW2-WT and (E and F) MW2ΔSTK1 cultures in the presence or absence 50 μM Inh2-B1, 1.51 μM (1 μg/ml) Ceftriaxone, 2.125 μM (1 μg/ml) Cefotaxime, and combination of Inh2-B1 plus Ceftriaxone, and Inh2-B1 plus Cefotaxime. The experiments were carried out as described in the Materials and Method section using Muller-Hinton broth and seeded with 4×10^6 CFUs of S. aureus MW2-Wild type or MW2ΔSTK1 strains per well. Each data points represent Mean±S.D. P values of significance (**=<0.01, ***=<0.001) were determined using the t-test with Welch's corrections. NS—Not significant.
(§1) Subsequently, the susceptibility of S. aureus MW2 strain to Ceftriaxone, Cefotaxime, Inh2, and Inh2-B1 was confirmed by the CLSI recommended serial dilution method using Muller Hinton broth. Minimum bactericidal activity (MBC) was measured using Muller-Hinton agar. Changes in the MBC of Ceftriaxone/Cefotaxime in the presence of serially diluted Inh2-B1 was determined in two steps. Initial screening was carried out using the Checkerboard method using Muller-Hinton agar (FIG. 15). […] Subsequent time to kill assays were carried out using 50 μM Inh2-B1 and Ceftriaxone. Cefotaxime (1 μg/ml) in a final volume of 250 μl using a sterile 96-well (U-bottom) microtiter plate over a period of 16 h at 37° C. under constant rotation (120 rpm). Optical density and corresponding CFU counts were measured at every two-hour interval up to 8 hours with a final overnight reading at the end of incubation period. CFU counts were measured using appropriate dilution of 10 μl of properly mixed samples at each time interval. All experiments were performed in three biological replicates and the statistical analysis of the results obtained at each time point was carried out by the non-parametric t-test with Welch's correction using GraphPad Prism 6 software.

[4] = system: S. aureus MW2ΔSTK1 mutant; assay: E-test antibiotic susceptibility (MIC), Muller-Hinton agar; type: cell-based; conditions: Staphylococcus aureus
[5] = system: S. aureus MW2-WT; assay: S. aureus mouse septicemia model, therapeutic study; type: in vivo, CD-1 mice; conditions: only Cefotaxime 10 mg/kg
Method: The virulence potential of the wild-type S. aureus MW2 wild-type and corresponding MW2ΔSTK1 and MW2ΔSTP1 mutants was assessed using the mouse-septicemia model. CD-1 mice (5 weeks old, 20-22 g. Charles River Laboratories, ten female mice/group and housed in a group of 5 mice/cage) were lightly anesthetized with isoflurane and injected retro-orbitally with the S. aureus MW2 or isogenic MW2Δstk1 mutant (4×10^8 CFU/0.1 ml of PBS). […] For therapeutic studies, the animals were first challenged with MW2-WT strain as described above and subsequently administered with antibiotic and/or small molecule compounds. The latter was started 4 h after the challenge and subsequently 12 h apart for 4 days post infection. Thus, Inh2-B1 (5 mg/kg body weight in 0.3 ml vehicle buffer), Ceftriaxone (10 and 25 mg/kg body weight in 0.3 ml vehicle buffer). Cefotaxime (10 mg/kg body weight), combination of Ceftriaxone (10 mg and 25 mg/kg body weight in 0.3 ml vehicle buffer) or Cefotaxime (10 mg/kg body weight) with Inh2-B1 (5 mg/kg body weight in 0.3 ml vehicle buffer), or 0.3 ml of vehicle-buffer (50 mM Tris/HCl, pH 8.8, 1.67% [v/v] DMSO). Early removal and euthanasia criteria were applied to all experimental mice showing penultimate sign(s) of the unrecoverable stage of illness, including ruffled skin with a hunch back, loss of more than 20% of body mass as compared to unchallenged mice receiving mock treatment, dyspnea, and labored gasping. All experiments were performed twice. Data were combined, and percentage survival in each group was statistically evaluated by the Log-Rank test (Kaplan-Meier) using the GraphPad Prism 6 software. P<0.05 was treated as a significant difference. On Day 3 P.I., 3-6 mice from different groups receiving treatment with a single antibiotic or combination therapy were euthanized and sacrificed, and kidneys were […] for determining the bacterial load, which was determined by counting the colony forming units in the homogenized tissue in sterile PBS buffer.

[6] = system: S. aureus MW2 wild-type; assay: Checkerboard titration end-point bactericidal assay (MBC), Muller-Hinton agar; type: cell-based, Staphylococcus aureus; conditions: for MBC: Staphylococcus aureus, MW2WILDTYPE
Method: FIGS. 15A-15B show checkerboard assays for determining bactericidal assay. Serial two-fold dilutions of 2 mM of Inh2-B1 (MW=411.58 g/mol) and (A) 3 mM ceftriaxone (MW=669.7 g/mol) were made in two separate 96-well plates in vertical (B1-B12 to H1-H2 wells) and horizontal (A2-H2 to A12-H12 wells) directions respectively. Serially diluted Inh2-B1 (100 μL) in the individual well was then mixed with the 100 μL serially diluted ceftriaxone present in the corresponding wells. The resulting various combinations of Inh2-B1 (starting from 1 mM) and ceftriaxone (starting from 1.5 mM) or cefotaxime (2.1 mM) as well as serially diluted one Inh2-B1 (B1 to H1) and ceftriaxone (A2-A12) or cefotaxime (A2-A12) were then incorporated in Muller-Hinton mini agar plates (2 mL). The agar plates were then seeded and diluted S. aureus MW2-wild-type culture equivalent to approximately 23±3 CFU. This checkerboard assay was used to determine the ideal combination of lowest concentration of Inh2-B1 and ceftriaxone that kills 99.9% of the wild-type MW2.
Since the STK1 is not essential for bacterial survival and its absence results in retardation of growth, an end-point bactericidal assay was done, employing the Checkerboard titration method followed by a time-to-kill assay using the broth dilution method. The 96-well plate-based checkerboard titration assays were performed using the fixed number of CFUs of MW2 strain, and the survival of the bacteria was measured on solid agar plates as an end-point result. […] The cut-off value to designate clinical isolates of S. aureus for antibiotics, including Ceftriaxone (TX) and Cefotaxime (CT) as susceptible, is less than 4 μg/ml (i.e., <4.8 μM of TX, and <7 μM of CT). […] CFU counts of MW2-WT grown in the presence of various concentrations of Inh2-B1 were examined over a period of 16 h. […] Similarly, it was also determined CFU counts of MW2-WT and MW2ΔSTK1 strains each grown in the absence or the presence of 50 μM of Inh2-B1 and 1.5 μM Ceftriaxone (1 μg/ml) or […] Cefotaxime (1 μg/ml) for 16 h employing the broth dilution method. […] Further, to address whether MW2 or STK1 could become refractory to a potential combined therapy, the S. aureus MW2 wild-type strain was grown in the presence of suboptimal dose of Inh2-B1 alone and combination with Ceftriaxone and Cefotaxime (25 μM Inh2-B1 and 3 μM of Ceftriaxone or 3 μM Cefotaxime) for consecutive 10 generations.
as §1, with “interval.” for “interval. All experiments were performed in three biological replicates and the statistical analysis of the results obtained at each time point was carried out by the non-parametric t-test with Welch's correction using GraphPad Prism 6 software.”

Compound	MIC / susceptibility pattern for MW2 in the presence vs absence of Inh2-B1 [1]	MIC [2] [µg/mL]	growth pattern of the wild-type, single agent [3]	MIC [4] [µg/mL]	MIC ([1]; Staphylococcus aureus, MW2WT) [µg/mL]	time within which all challenged mice died [5] [h]	MBC ([6]; agent alone, MW2, read-out: Minimum bactericidal concentration (MBC))	MBC ([6]; in the presence of 50 μM of Inh2-B1, read-out: MBC for MW2 in the presence of Inh2-B1)	concentration up to which growth of MW2 was seen ([6]; agent alone, further analysis) [µM]	concentration of wells with ≥1 CFU of wild-type MW2 ([6]; checkerboard, agent alone) [µM]	fold reduction of MBC ([6]; in the presence of 50 μM of Inh2-B1 vs antibiotic alone) [fold]
CC[C@H]1OC(=O)[C@H](C)[C@@H](O[C@H]2C[C@@](C)(OC)[C@@H](O)[C@H](C)O2)[C@H](C)[C@@H](O[C@@H]2O[C@H](C)C[C@H](N(C)C)[C@H]2O)[C@](C)(O)C[C@@H](C)C(=O)[C@H](C)[C@@H](O)[C@]1(C)O [Erythromycin]	remained unaltered										
CO/N=C(\C(=O)N[C@@H]1C(=O)N2C(C(=O)O)=C(COC(C)=O)CS[C@H]12)c1csc(N)n1 [Cefotaxime]		> 100	remained unaltered	4 (≈ 8.78 µM)	> 100	36 to 48	220 µM and 100 µg/mL	27.5 µM and 12.5 µg/mL	176	≤ 110	8
C[C@@H](O)[C@H]1C(=O)N2C(C(=O)O)=C(S[C@@H]3CN[C@H](C(=O)N(C)C)C3)[C@H](C)[C@H]12 [Meropenem]	remained unaltered										
